Assays:
[1] = target: Parkin (Homo sapiens (Human), UniProt O60260); assay: Primary HCI assay of EGFP-Parkin translocation to mitochondria; assay type: cell-based; settings: primary assay screen, Parkin translocation to mitochondria
Protocol: GFP-Parkin is localized throughout the cell in unstressed cells but translocates to mitochondria when the mitochondrial membrane potential is compromised and Parkin is activated. After automated image acquisition of fixed cells, regions of interest of each cell were defined with the analysis software. […] To quantify the relocalization of GFP-Parkin to mitochondria, the ratio of the GFP intensity in the cytoplasm and the nucleus was calculated. Under non-stressed condition, this ratio is about 1. FIG. 1B is a bar graph showing the results of the assay with a Z factor (Z′) of 0.5-0.8, which indicates its robustness and usefulness as a screening assay. Validation of the assay has been performed by using PINK1 siRNA.
FIGS. 2A-2C show a primary HCI assay with CCCP titration. FIG. 2A is a graphic description of the primary HCI assay of EGFP-Parkin translocation. HeLa cells stably expressing GFP-Parkin were seeded with 1350 cells per well in 384-well plates (25 μL per well). Cells were allowed to attach overnight before drug was added 2× concentrated in a volume of 25 μL in triplicates. After 2 h, 50 μL of a 2× low-dose CCCP (yielding a final concentration of 3.5 μM CCCP) was added to all wells that contained test compounds and for the negative control. For positive control wells, CCCP was added in a final concentration of 10 μM. After 2 h incubation with CCCP, cells were fixed and labeled with Hoechst for at least 1 h before cells were imaged. […] Values were being normalized to negative and positive control values and plotted as % activity. Z′ was calculated for quality control. Positive controls were indicated in green, negative control wells in red. Drugs that lead to more than 50% activity are considered positive (blue).
Functional testing of compounds was performed using an established primary HCI assay for Parkin translocation, which correlates well with enzymatic activation (Fiesel et al., J. Cell Science (2014) 127:3488-3504; Fiesel et al., Human Mutation (2015) 36:774-786). In brief, 1400 HeLa cells stably expressing EGFP-Parkin were seeded into optical 384-well plates (Greiner BioOne) in 25 μL media and allowed to adhere for 40 h. Compounds 1, 2, 3, 4, and 31 were added to the plate as 2× concentrated stocks. Control wells were treated with equal volume of DMSO in media. After 2 h, unless otherwise stated, CCCP was added as 2× concentrated stock with a final assay concentration of 10 μM for PC wells and 3.5 μM for test and NC wells. This low dose of CCCP was experimentally determined by a dose response curve of CCCP to result in no Parkin translocation (FIG. 13). After another 2 h, cells were fixed in 4% paraformaldehyde for 10 min and stained with Hoechst 33342 (1:5000, Invitrogen) before plates were imaged and analyzed.
Image acquisition was performed on a BD Pathway 855 with the Attovision V1.6 software (BD Biosciences). Wells were imaged with a 20× objective using a 2×2 montage with laser autofocus. EGFP exposure time was 0.0175 sec, Hoechst 0.0015 sec. Raw images were not processed and directly analyzed using a build-in ‘RING—2 output’ algorithm. Values were exported and normalized using JMP 11 software and transferred to GraphPad Prism 7 for quality control, graphing and curve fitting for DRCs with a variable slope using four parameters. […] Values were normalized to both PC and NC values from 24 wells each per plate and the Z′ score was calculated. Plates with Z′<0.5 were repeated.

[2] = test system: TA 98; assay: Ames Test, strain TA 98; settings: TA 98, positive control 0.1 μg/plate
From the text: (§1) The test used amino acid-dependent strains of Salmonella typhimurium and Escherichia coli to detect point mutations which involved substitution, addition or deletion of one or a few DNA base pairs. Point mutations were introduced in the histidine (Salmonella typhimurium) or the tryptophan (Escherichia coli) operon, making the tester strains incapable of producing these amino acids. The test detected mutations that revert the mutations present in the bacteria, restoring the functional capability to synthesize histidine or tryptophan. The revertant bacteria were detected by the ability to grow in the absence of the amino acid required by the parent test strain. A mutagenic potential of a tested compound was assessed by exposing these bacterial strains to different concentrations of the compounds and estimating number of revertant colonies grown in the absence (trace quantities) of the amino acid.
(§2) DMSO was used as the negative control.
(§3) For each experiment, tester strain cultures were grown overnight in Oxoid nutrient broth #2 at 37° C. with shaking at 235 rpm to a density of 1-2×10^9 colony forming units/mL (OD540˜2).
(§4) The tester strain (10 μL of night culture) was mixed with the test agent (10 µL of the DMSO stock) and GM liquid medium (30 μL). The obtained mixture was incubated at room temperature for 5 min in a sterile 1.5 mL tube. Then, to the tube was added 200 μL of molten top agar stored at 44° C. to prevent solidifying. After mixing with a pipette, the mixture was poured onto the surface of a GM agar plate (2.0 mL of GM agar per plate). After solidifying the top agar, the plate was inverted and incubated at 37° C. for 48 hours. Then, results were expressed as number of revertant colonies per plate.

[3] = target: CYP 2C9 (Homo sapiens (Human), UniProt P11712); assay: P450-Glo CYP450 inhibition, CYP 2C9; assay type: in vitro ADME; settings: human, P450-Glo Assay System (Promega), CYP 2C9 membranes, CYP 2C9, reference inhibitor 120 uM
Chain of CYP 2C9 (P11712 whole entry): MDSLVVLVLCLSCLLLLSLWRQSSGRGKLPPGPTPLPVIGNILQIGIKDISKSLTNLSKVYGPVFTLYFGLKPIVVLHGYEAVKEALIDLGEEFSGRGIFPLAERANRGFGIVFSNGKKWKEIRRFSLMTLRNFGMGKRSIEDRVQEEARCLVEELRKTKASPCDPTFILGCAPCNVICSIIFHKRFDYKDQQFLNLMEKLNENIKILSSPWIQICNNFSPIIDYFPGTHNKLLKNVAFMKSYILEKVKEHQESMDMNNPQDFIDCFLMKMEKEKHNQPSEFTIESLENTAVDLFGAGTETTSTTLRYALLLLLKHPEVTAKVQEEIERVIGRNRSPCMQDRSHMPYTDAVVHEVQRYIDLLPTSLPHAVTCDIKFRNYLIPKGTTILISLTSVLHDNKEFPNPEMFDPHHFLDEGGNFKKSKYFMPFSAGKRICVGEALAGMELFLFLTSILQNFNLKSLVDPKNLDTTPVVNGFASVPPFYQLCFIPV
Protocol: CYP450 inhibition profiling provides valuable information regarding any possible drug-drug interactions for a test compound.
All experiments were performed using P450-Glo™ Assay Systems (Promega) in accordance with the manufacturer's protocols. The P450-Glo™ Assays provide a luminescent readout-based method for measuring cytochrome P450 activity. A conventional cytochrome P450 reaction was performed by incubating the cytochrome P450 and a luminogenic cytochrome P450 substrate. The substrates in the P450-Glo™ assays are derivatives of beetle luciferin. The derivatives themselves are not substrates for luciferase but are converted by cytochrome P450s to luciferin, which in turn reacts with luciferase to produce light. The amount of light produced was directly proportional to cytochrome P450 activity. All test points were performed in quadruplicates. Control membranes (without CYPs) represented the Negative control (baseline).
The following reference compounds were used to assess CYP inhibition: […]

[4] = test system: TA 1537; assay: Ames Test, strain TA 1537; settings: TA 1537, positive control 7.5 μg/plate (row printed 50; shifted)
From the text: as §1, §2, §3, §4

Chain of Parkin (O60260 whole entry): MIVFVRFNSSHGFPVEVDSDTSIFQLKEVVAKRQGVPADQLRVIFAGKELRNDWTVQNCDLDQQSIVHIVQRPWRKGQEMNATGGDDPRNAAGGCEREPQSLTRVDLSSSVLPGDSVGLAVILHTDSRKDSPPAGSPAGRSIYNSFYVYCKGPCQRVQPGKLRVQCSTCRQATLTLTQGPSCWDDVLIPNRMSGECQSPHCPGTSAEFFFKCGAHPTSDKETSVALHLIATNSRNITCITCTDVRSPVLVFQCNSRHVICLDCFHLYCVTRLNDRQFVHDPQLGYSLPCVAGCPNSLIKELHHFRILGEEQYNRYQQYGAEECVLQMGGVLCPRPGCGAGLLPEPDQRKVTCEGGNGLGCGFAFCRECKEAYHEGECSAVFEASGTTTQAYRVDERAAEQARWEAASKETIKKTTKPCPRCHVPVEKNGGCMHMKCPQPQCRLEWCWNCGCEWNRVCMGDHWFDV

Row | Structure (SMILES) | EC50 [1] | other results
1 | O=C(Cn1ccnc1-c1ccccc1)Nc1ccc(-c2ccccc2)cc1 [Compound 29] | 2 µM | 
2 | O=C(Cn1cnc2c1CCCC2)Nc1ccc(-c2ccccc2F)nn1 [Compound 25] | 0.382 µM | 
3 | O=C(Cn1ccnc1)Nc1ccc(OCC2CCCCC2)cc1 [Compound 8] | 5 µM | 
4 | O=C(Cn1ccnc1)Nc1nc(-c2ccccc2)co1 [Compound 13] | 5 µM | 
5 | O=[N+]([O-])c1ccc2c(c1)Cc1ccccc1-2 [2-nitrofluorene, reference compound] |  | Mean ± SD [2]: 7 ± 1.41 revertant colonies per plate
6 | OC(Cn1cncn1)(Cn1cncn1)c1ccc(F)cc1F [fluconazole, reference compound] |  | inhibition at 120 µM [3]: 84.5%
7 | O=C(Cn1ccnc1-c1ccncc1)Nc1ccc(-c2ccccc2)cc1 [Compound 11] | 5 µM | 
8 | Cc1nc2c(c(N3CCN(C(=O)c4ccccc4)CC3)n1)CCCC2 [Compound 40] | > 10 µM | 
9 | Cc1cc(NC(=O)Cn2cnc3c2CCCC3)ccc1-c1ccncc1 [Compound 28] | 0.134 µM | 
10 | O=C(Cn1ccnc1)Nc1ccc(COC2CCCC2)cc1 [Compound 15] | 5 µM | 
11 | Cc1nc2c(c(N3CCN(Cc4ccccc4)C(C)(C)C3)n1)CCCC2 [Compound 44] | 0.438 µM | 
12 | Cc1nc2c(c(N3CCCN(Cc4cccs4)CC3)n1)CCCC2 [Compound 43] | 0.28 µM | 
13 | CC(C)Cc1ccc(NC(=O)Cn2ccnc2)cc1 [Compound 17] | 5 µM | 
14 | c1ccc(CN2CCCN(c3ncnc4ncccc34)CC2)cc1 [Compound 46] | 0.203 µM | 
15 | Nc1c2ccccc2nc2ccccc12 [9-aminoacridine, reference compound] |  | Mean ± SD [4]: 1119 ± 21.21 revertant colonies per plate
16 | O=C(Cn1cnc2c1CCCC2)Nc1ccc(-c2ccccc2)cn1 [Compound 22] | 0.246 µM | 

Further lines, with some results ahead:

Row | EC50 [1] | Structure (SMILES) | other results
17 | 5 µM | O=C(Cn1ccnc1)Nc1ccc(C23CC4CC(CC(C4)C2)C3)cc1 [Compound 10] | 
18 | 5 µM | N#Cc1ccc(Oc2ccc(NC(=O)Cn3ccnc3)cc2)cc1 [Compound 16] | 
19 | 0.19 µM | Cc1nccc(-c2ccc(NC(=O)Cn3cnc4c3CCCC4)cc2)n1 [Compound 24] | 
20 | 0.238 µM | O=C(Nc1ccc(-c2ccccc2)cc1)c1cn2c(n1)CCCC2 [Compound 21] | 
21 | > 10 µM | COc1ccc(CN2CCCN(c3ncnc4c3CN(C)CC4)CC2)cc1 [Compound 36] | 
22 | 10 µM | Cc1nc2c(c(N3CCCN(Cc4csc(C)n4)CC3)n1)CCCC2 [Compound 35] | 
23 | 0.707 µM | Cc1nc2c(c(N3CCCN(Cc4noc(C5CC5)n4)CC3)n1)CCCC2 [Compound 42] | 
24 | 0.19 µM | Cc1ccnc(-c2ccc(NC(=O)Cn3cnc4c3CCCC4)cc2)n1 [Compound 27] | 
25 | 0.272 µM | O=C(Cn1cnc2c1CCCC2)Nc1ccc(-c2ccccn2)cc1 [Compound 23] | 
26 | 2 µM | O=C(Cn1ccnc1)Nc1ccc(-c2ccccc2)c(Cl)c1 [Compound 6] | 
27 | 5 µM | O=C(Cn1ccnc1)Nc1ccc(CN2CCc3ccccc32)cc1 [Compound 9] | 
28 | 0.366 µM | Cc1nc2c(c(N3CCCN(Cc4ccc(Cl)cc4)CC3)n1)CCCC2 [Compound 45] | 
29 | 5 µM | O=C(Cn1ccnc1)Nc1ccc(SC2CCCC2)cc1 [Compound 18] | 
30 | 10 µM | O=C(Cc1ccncc1)Nc1ccc(-c2ccccc2)cc1 [Compound 20] | 
31 | 5 µM | Cc1cc(NC(=O)Cn2ccnc2)ccc1-c1ccccc1 [Compound 30] | 
32 | 5 µM | O=C(Cn1ccnc1)Nc1ccc(-c2ccccc2)c(C(F)(F)F)c1 [Compound 12] | 
33 | 10 µM | Cc1nccn1CC(=O)Nc1ccc(-c2ccccc2)cc1 [Compound 19] | 
34 | 5 µM | O=C(Cn1ccnc1)Nc1ccc(Oc2ccccc2)cc1 [Compound 14] | 
35 | 0.938 µM | O=C(Cn1cnc2c1CCCC2)Nc1cnc(-c2ccccc2)nc1 [Compound 26] | 

Reference: patent US11401255B2, “Small molecule activators of Parkin enzyme function” (Mayo Foundation for Medical Education and Research, priority 2016, dated 2022)
